Series [1] is described as follows: Terminal half life in psychotic patient (9 patients) at 2.9 +/- 1.2 mg, po by reversed phase HPLC method. Format: ADME, organism-based. The following applies: human, in vivo, 2.9 mg, read-out: beta t1/2 (converted).
Series [2] is described as follows: Terminal phase volume of distribution at steady state in psychotic patient (9 patients) at 3.5 +/- 1.2 mg, iv by reversed phase HPLC method based model-independent approach analysis. Format: ADME, organism-based. Particulars: human, in vivo, 3.5 mg, read-out: Vbeta.
Series [3] can be described thus: Volume of distribution at steady state in psychotic patient (9 patients) at 3.5 +/- 1.2 mg, iv by reversed phase HPLC method. The class given is ADME, organism-based. Particulars: human, in vivo, 3.5 mg, read-out: Vdss.
The nature of series [4]: Unbound fraction in psychotic patient (9 patients) at 3.5 +/- 1.2 mg, iv by reversed phase HPLC method. Format: ADME, organism-based. The following applies: human, in vivo.
The test system of another series is Plasma. In words: Plasma concentration in psychotic patient. Particulars: human. The class given is ADME.
A short description of series [5]: Terminal phase volume of distribution at steady state in psychotic patient (9 patients) at 3.5 +/- 1.2 mg, iv by reversed phase HPLC method. The class given is ADME, organism-based. The following applies: human, in vivo, 3.5 mg, read-out: Vbeta.
A short description of series [6]: Terminal phase volume of distribution at steady state in psychotic patient (9 patients) at 3.5 +/- 1.2 mg, iv by reversed phase HPLC method based model-dependent approach analysis. The class given is ADME, organism-based. Particulars: human, in vivo, 3.5 mg, read-out: Vbeta.
The nature of series [7]: Unbound fraction in human serum. Format: ADME, cell-free.
A short description of series [8]: Terminal half life in psychotic patient (9 patients) at 3.5 +/- 1.2 mg, iv by reversed phase HPLC method. The class given is ADME, organism-based. Particulars: human, in vivo, 3.5 mg, read-out: beta t1/2 (converted).

Turning to `O=C(CCCN1CCC(O)(c2ccc(Cl)cc2)CC1)c1ccc(F)cc1` [HALOPERIDOL], the half-life was 18.1 h in series [1] and 18.8 h in [8]. The Vd in [2] was 9.5 L/kg; in series [3], 7.9 L/kg; in [5] it was 9.5 L/kg; in [6], 9.6 L/kg. In addition, the Fu in [4] is on record as 0.6%. This compound gave a Cp in the series on Plasma of 5 ng/mL. Besides, in series [7], the unbound share (fraction unbound) (in general, free concentration divided by total concentration) is 0.08.
